System: GBS clinical isolates and laboratory strains
Assay: Macrobroth penicillin tolerance assay
Type: cell-based, Group B Streptococcus
Conditions: for 10xMIC, regrowth O.D.600: Penicillin G 10×MIC90 48 h; for 10xMIC, regrowth O.D.600 / 30xMIC, regrowth O.D.600 / 100xMIC, regrowth O.D.600 / 300xMIC, regrowth O.D.600: then 24 h drug-free; for 30xMIC, regrowth O.D.600: Penicillin G 30×MIC90 48 h; for 100xMIC, regrowth O.D.600: Penicillin G 100×MIC90 48 h; for 300xMIC, regrowth O.D.600: Penicillin G 300×MIC90 48 h
Description: Using this modified penicillin tolerance assay, tolerant strains from the GBS clinical isolates can be more efficiently identified. In this macrobroth culture format, 25 ml THB broth GBS cultures (containing clinical isolates) were grown to an early exponential growth phase (˜0.2 OD600). Cell cultures (6 ml) were collected and divided into 4 culture tubes. […] Cell cultures were shaken at 150 rpm in order to maintain cells in suspension for proper growth. Subcultures (1/20 dilution) of cells were put into fresh THB containing […] Penase (i.e., 100 μl of Penase 10,000 U stock into 4 ml THB culture). Subcultures were allowed to grow for 24 hours at 37° C. Cell growth was monitored by OD (see Example 2).
(I) Bacterial Strains and Culture Conditions. GBS strains A909 (serotype IA), 515 (serotype IA), NEM316 (serotype III), COHI (serotype III), 2603V/R (serotype V) and O90R (non-typable) were used in this study. E. coli Top10 cells were used for the recombination experiments. GBS was cultured in Todd Hewitt broth (THB) or Tryptic Soy 5% sheep blood (TS) media and E. coli in Luria-broth (LB) medium or agar. Antibiotics were used at the following concentrations: for GBS—penicillin G (MIC90 0.06 μg ml^−1), ampicillin (MIC90 0.12 μg ml^−1), vancomycin (MIC90 2 μg ml^−1), cefazolin (MIC90 1 μg ml^−1) and chloramphenicol (5 μg ml^−1); for E. coli—ampicillin (50 μg ml^−1) and chloramphenicol (5 μg ml^−1). Both GBS and E. coli cultures were grown at 37° C. (II) Tolerance Using the MBC:MIC Ratio Method. Three GBS laboratory strains (i.e., A909, NEM316, and O90R) were cultured overnight for 18 h at 37° C. in THB. Subcultures in THB were subsequently grown to exponential phase (OD600˜0.3; i.e. 5×10^5 cfu/ml) at 37° C. Cell cultures were then exposed to different concentrations of antibiotics (Penicillin G, Ampicillin, Cefozolin or Vancomycin). […] Cell cultures were dispersed every 18 h before OD600 was measured to determine the lowest concentration of antibiotic with 90% growth inhibition (MIC90). Antibiotic treated cells (8 μl) from each well were re-suspended into PBS (100 μl) and plated (54 μl) on TS agar plates and allowed to grow for an additional 24 h at 37° C. Cell count was performed to determine the lowest concentration of antibiotic with 90% killing of original inoculums (MBC90). (III) Penicillin Killing and Regrowth Tolerance Assay by Microbroth Dilution. Three GBS laboratory strains (i.e., A909, NEM316, and O90R) were cultured overnight for 18 h at 37° C. in THB. Subcultures in THB were subsequently grown to exponential phase (OD600˜0.3) at 37° C. Cell cultures were then exposed to different concentrations of Penicillin G (Sigma, St. Louis, Mo.). […] Cell cultures were dispersed. A 1:20 dilution of cells was re-plated into new wells containing fresh THB with 500 U Penase (to degrade residual penicillin). Cell cultures were allowed to re-grow for an additional 24 h at 37° C. before the OD600 was measured. (IV) Measuring Cell Viability by Determining ATP Concentration. GBS strains were cultured for 18 h at 37° C. in THB. These cells were inoculated into fresh THB and subsequently allowed to grow to exponential phase (OD600 0.25-0.3) at 37° C. One ml of each culture was centrifuged at 5,000×g for 4 min. The cell pellet was re-suspended in ATP-free water. Cellular ATP was extracted using trichloroacetic acid (TCA) (5%) for 2 min and subsequently neutralized with Tris-EDTA-0.1M NaOAc, pH 7.75 to 10×TCA volume. The initial (in.) cellular ATP concentration ([ATP]) was measured using the ENLITEN (Promega) luciferase based reaction kit. THB cultures were then treated with 100×MIC90 Penicillin G for 22 h. The experimental (exp.) cellular ATP was extracted and the concentration was measured as stated above. Based on the calculations ([ATP] exp.)/([ATP] in./O.D. in.), differences in viability were equated with the change in [ATP]. (V) Measuring Penicillin Induced Lysis. Three GBS laboratory strains (A909, NEM316, and O90R) were cultured for 18 h at 37° C. in THB. […]

[1] = GBS laboratory strain 2603V/R (V)
[2] = GBS laboratory strain A909 (Ia)
[3] = GBS laboratory strain COH1 (III)
[4] = GBS laboratory strain NEM316 (III)
[5] = GBS laboratory strain O90R (NT)

For `CC1(C)S[C@@H]2[C@H](NC(=O)Cc3ccccc3)C(=O)N2[C@H]1C(=O)O` [Penicillin G], the “% of clinical isolates PE-PT” value (51 clinical isolates) was 23.5%, the “% of clinical isolates PT (penicillin tolerant)” value (51 clinical isolates) was 15.7% and the “% of clinical isolates S (penicillin susceptible)” value (51 clinical isolates) was 60.8%. The Phenotype (GBS laboratory strain 515 (Ia)) was “Penicillin Tolerance (PT)”, the “10xMIC, regrowth O.D.600” value (GBS laboratory strain 515 (Ia)) was “++ (“++” indicates an O.D.600 of 0.251 to 0.750)” and the “30xMIC, regrowth O.D.600” value (GBS laboratory strain 515 (Ia)) was “+++ (“+++” indicates an O.D.600 of 0.751 to 1.500)”. The “100xMIC, regrowth O.D.600” value (GBS laboratory strain 515 (Ia)) was “++ (“++” indicates an O.D.600 of 0.251 to 0.750)”, the “300xMIC, regrowth O.D.600” value (GBS laboratory strain 515 (Ia)) was “++ (“++” indicates an O.D.600 of 0.251 to 0.750)” and the Phenotype [1] was “Susceptible (S)”. The “10xMIC, regrowth O.D.600” value [1] was “−− (“−−” indicates an O.D.600 of 0.001 to 0.099)”, the “30xMIC, regrowth O.D.600” value [1] was “−− (“−−” indicates an O.D.600 of 0.001 to 0.099)” and the “100xMIC, regrowth O.D.600” value [1] was “−− (“−−” indicates an O.D.600 of 0.001 to 0.099)”. For the same compound, the “300xMIC, regrowth O.D.600” value [1] was “−− (“−−” indicates an O.D.600 of 0.001 to 0.099)”, the Phenotype [2] was “Susceptible (S)” and the “10xMIC, regrowth O.D.600” value [2] was “−− (“−−” indicates an O.D.600 of 0.001 to 0.099)”. For the same compound, the “30xMIC, regrowth O.D.600” value [2] was “−− (“−−” indicates an O.D.600 of 0.001 to 0.099)”, the “100xMIC, regrowth O.D.600” value [2] was “−− (“−−” indicates an O.D.600 of 0.001 to 0.099)” and the “300xMIC, regrowth O.D.600” value [2] was “−− (“−−” indicates an O.D.600 of 0.001 to 0.099)”. For the same compound, the Phenotype [3] was “Paradoxical Effect-Penicillin Tolerance”, the “10xMIC, regrowth O.D.600” value [3] was “−− (“−−” indicates an O.D.600 of 0.001 to 0.099)” and the “30xMIC, regrowth O.D.600” value [3] was “+++ (“+++” indicates an O.D.600 of 0.751 to 1.500)”. For the same compound, the “100xMIC, regrowth O.D.600” value [3] was “+++ (“+++” indicates an O.D.600 of 0.751 to 1.500)”, the “300xMIC, regrowth O.D.600” value [3] was “++ (“++” indicates an O.D.600 of 0.251 to 0.750)” and the Phenotype [4] was “Paradoxical Effect-Penicillin Tolerance”. For the same compound, the “10xMIC, regrowth O.D.600” value [4] was “+++ (“+++” indicates an O.D.600 of 0.751 to 1.500)”, the “30xMIC, regrowth O.D.600” value [4] was “−− (“−−” indicates an O.D.600 of 0.001 to 0.099)” and the “100xMIC, regrowth O.D.600” value [4] was “++ (“++” indicates an O.D.600 of 0.251 to 0.750)”. The “300xMIC, regrowth O.D.600” value [4] was “+++ (“+++” indicates an O.D.600 of 0.751 to 1.500)”, the Phenotype [5] was “Penicillin Tolerance (PT)” and the “10xMIC, regrowth O.D.600” value [5] was “+++ (“+++” indicates an O.D.600 of 0.751 to 1.500)”. The “30xMIC, regrowth O.D.600” value [5] was “+++ (“+++” indicates an O.D.600 of 0.751 to 1.500)”, the “100xMIC, regrowth O.D.600” value [5] was “+++ (“+++” indicates an O.D.600 of 0.751 to 1.500)” and the “300xMIC, regrowth O.D.600” value [5] was “+++ (“+++” indicates an O.D.600 of 0.751 to 1.500)”. The “10xMIC, regrowth O.D.600” value (GBS strain 12 (III)) was “−− (“−−” indicates an O.D.600 of 0.001 to 0.099)”, the “30xMIC, regrowth O.D.600” value (GBS strain 12 (III)) was “−− (“−−” indicates an O.D.600 of 0.001 to 0.099)” and the “100xMIC, regrowth O.D.600” value (GBS strain 12 (III)) was “−− (“−−” indicates an O.D.600 of 0.001 to 0.099)”. For the same compound, the “300xMIC, regrowth O.D.600” value (GBS strain 12 (III)) was “−− (“−−” indicates an O.D.600 of 0.001 to 0.099)”, the “10xMIC, regrowth O.D.600” value (GBS strain 18 (NT)) was “−− (“−−” indicates an O.D.600 of 0.001 to 0.099)” and the “30xMIC, regrowth O.D.600” value (GBS strain 18 (NT)) was “−− (“−−” indicates an O.D.600 of 0.001 to 0.099)”. The “100xMIC, regrowth O.D.600” value (GBS strain 18 (NT)) was “−− (“−−” indicates an O.D.600 of 0.001 to 0.099)”, the “300xMIC, regrowth O.D.600” value (GBS strain 18 (NT)) was “−− (“−−” indicates an O.D.600 of 0.001 to 0.099)” and the “10xMIC, regrowth O.D.600” value (GBS strain 21 (NT)) was “−− (“−−” indicates an O.D.600 of 0.001 to 0.099)”. The “30xMIC, regrowth O.D.600” value (GBS strain 21 (NT)) was “−− (“−−” indicates an O.D.600 of 0.001 to 0.099)”, the “100xMIC, regrowth O.D.600” value (GBS strain 21 (NT)) was “−− (“−−” indicates an O.D.600 of 0.001 to 0.099)” and the “300xMIC, regrowth O.D.600” value (GBS strain 21 (NT)) was “−− (“−−” indicates an O.D.600 of 0.001 to 0.099)”. For the same compound, the “10xMIC, regrowth O.D.600” value (GBS strain 22 (V)) was “++ (“++” indicates an O.D.600 of 0.251 to 0.750)”, the “30xMIC, regrowth O.D.600” value (GBS strain 22 (V)) was “++ (“++” indicates an O.D.600 of 0.251 to 0.750)” and the “100xMIC, regrowth O.D.600” value (GBS strain 22 (V)) was “++ (“++” indicates an O.D.600 of 0.251 to 0.750)”. For the same compound, the “300xMIC, regrowth O.D.600” value (GBS strain 22 (V)) was “++ (“++” indicates an O.D.600 of 0.251 to 0.750)”, the “10xMIC, regrowth O.D.600” value (GBS strain 26 (NT)) was “−− (“−−” indicates an O.D.600 of 0.001 to 0.099)” and the “30xMIC, regrowth O.D.600” value (GBS strain 26 (NT)) was “−− (“−−” indicates an O.D.600 of 0.001 to 0.099)”. For the same compound, the “100xMIC, regrowth O.D.600” value (GBS strain 26 (NT)) was “−− (“−−” indicates an O.D.600 of 0.001 to 0.099)”, the “300xMIC, regrowth O.D.600” value (GBS strain 26 (NT)) was “−− (“−−” indicates an O.D.600 of 0.001 to 0.099)” and the “10xMIC, regrowth O.D.600” value (GBS strain 46 (Ib)) was “−− (“−−” indicates an O.D.600 of 0.001 to 0.099)”. For the same compound, the “30xMIC, regrowth O.D.600” value (GBS strain 46 (Ib)) was “−− (“−−” indicates an O.D.600 of 0.001 to 0.099)”, the “100xMIC, regrowth O.D.600” value (GBS strain 46 (Ib)) was “−− (“−−” indicates an O.D.600 of 0.001 to 0.099)” and the “300xMIC, regrowth O.D.600” value (GBS strain 46 (Ib)) was “−− (“−−” indicates an O.D.600 of 0.001 to 0.099)”. For the same compound, the “10xMIC, regrowth O.D.600” value (GBS strain 47 (III)) was “−− (“−−” indicates an O.D.600 of 0.001 to 0.099)” and the “30xMIC, regrowth O.D.600” value (GBS strain 47 (III)) was “−− (“−−” indicates an O.D.600 of 0.001 to 0.099)”.
